Experimental data from paper PMC10674865, “Identification and Pharmacological Characterization of a Low-Liability Antinociceptive Bifunctional MOR/DOR Cyclic Peptide” (Molecules, 2023).
Marks after values point to notes of the source that are not given here. Positions of bridges follow the written chain, without caps; N, C: chain ends. Non-standard residues stand in square brackets, D forms with d. Residues, ends and D or L forms follow the SMILES beside them. 2Abz = Nc1ccccc1C(=O)O; Dap = NC[C@H](N)C(=O)O

Tests used:
[1] = test system: C57BL/6J male mice; test: 55 °C warm water tail-withdrawal (WWTW) assay, antinociception; type: in vivo, mouse
Description: The 55 °C warm water tail-withdrawal assay was performed, as previously described, [52] to screen the library. Mixed-based samples were dissolved at a concentration of 5 mg/mL in saline containing 10% DMSO. Each sample was given to mice (n = 8) intraperitoneally (i.p.) at a dose of 5 mg/kg. At 0.5, 1, 2, 3.5, 5, 8 h post-administration of the samples, the tail-withdrawal latencies were measured for each sample. The average response time to tail-withdrawal at the six time points were then combined. The combined response time to withdrawal tail was used to determine the antinociceptive effect of each sample. A cutoff of 15 s was used to avoid tissue damage; those mice failing to withdraw their tails within this time were assigned a maximal antinociceptive score of 100%.
To determine antinociceptive activity of individual compounds, the tail-withdrawal latency was determined repeatedly every 10 min, following administration of the compounds for 1 h or until latencies returned to baseline values. At each time point, antinociception was calculated according to the following formula: % antinociception = 100 × (test latency − control latency)/(15 − control latency). Tail-withdrawal data points are the means of 8–16 mice, unless otherwise indicated, with SEM shown by error bars.
Percent antinociception was used to determine within-group effects and to allow comparison to baseline latency in tail-withdrawal experiments. The statistical significance of differences between ED50 values was determined by evaluation of the ED50 value shift via nonlinear regression modeling with Prism 10.0 software. Significant differences in behavioral data were analyzed by ANOVA (one-way or two-way with repeated measures (RM), as appropriate). Significant results were further analyzed with Sidak’s, Tukey’s, or Dunnett’s multiple comparison post hoc tests, as appropriate. All data are presented as mean ± SEM, with significance set at p < 0.05.

[2] = test system: C57BL/6J mice; test: Respiration rate in CLAMS apparatus; type: in vivo, mouse; details: CycloAnt 3.0 or 10.6 mg/kg i.p.; morphine 10 or 30 mg/kg i.p.; 120 min period
Description: (§1) Male C57Bl/6J mice were tested for respiratory effects using automated, computer-controlled Comprehensive Lab Animal Monitoring System (CLAMS) apparatus. Mice (n = 8) were habituated in closed apparatus cages (23.5 × 11.5 × 13 cm^3) for 30 min before being administrated with the hit i.p. at the experimented high dose of 3.0 mg/kg, and an even higher dose at 15 times of the ED50 value, 10.6 mg/kg, i.p. Mice were then returned to chambers, and their respiration rate (breaths/min) was measured for […] in 30 s intervals using a pressure transducer built into the enclosed, sealed CLAMS cage. The resultant change in pressure during mouse breathing was recorded to reveal the respiration rate (breaths/min).
(§2) Infrared beams located in the floor measured locomotion as the number of beam breaks. Respiration and locomotive data were averaged over 20 min periods for 120 min post-injection of the test compound. Data are presented as % vehicle response ± SEM, ambulation or breaths per minute.

[3] = test system: C57BL/6J mice; test: Ambulation (hyperlocomotion) in CLAMS apparatus; type: in vivo, mouse; details: for Effect on ambulation (hyperlocomotion): CycloAnt 3 or 10.6 mg/kg i.p., morphine 10 or 30 mg/kg i.p., 120 min
Description: as §1, §2

[4] = test system: mice; test: Opioid-induced hyperalgesia, 48 °C warm water tail-withdrawal assay; type: in vivo, mouse; details: for Day 5 tail withdrawal latency, 48 °C warm water stimulus: after twice daily dosing for 4 days (morphine 10 mg/kg, CycloAnt 3 mg/kg i.p.), before day 5 dose, day 1 baselines 10 ± 1.14 s (morphine group), 9.1 ± 0.68 s (CycloAnt group), mean ± SEM, SEM; for Opioid-induced hyperalgesia after chronic administration: twice daily for 4 days, morphine 10 mg/kg, CycloAnt 3 mg/kg i.p., 48 °C
Description: The 48 °C warm water tail-withdrawal assay was performed as previously described, with the latency to withdraw the tail taken as the end point. The water temperature of 48 °C was selected for this work to ensure a moderate tail-withdrawal response, with a measurable decrease in withdrawal time possible, but also a significant temperature for hyperalgesic testing. […] After determining control latencies on day 1, mice received chronic morphine (10 mg/kg, i.p.) or CycloAnt (3 mg/kg, i.p.) treatment twice a day for 4 days, as described below. […] Mice were then tested prior to treatment on day 5 for evidence of induced hyperalgesia.

[5] = test system: mice; test: Antinociceptive tolerance after chronic dosing, 55 °C WWTW; type: in vivo, mouse; details: twice daily for 4 days, morphine 10 mg/kg (tested 30 min), CycloAnt 3 mg/kg i.p. (tested 20 min)
Description: (§3) Mice were randomly assigned to one of three groups and given saline (i.p.; n = 10), morphine (10 mg/kg, i.p.; n = 10) or CycloAnt (3 mg/kg, i.p.; n = 9) twice daily for 4 days, and once more on the morning of the fifth day. Mice were then tested in the 55 °C WWTW assay to assess for the loss of therapeutic efficacy (antinociceptive tolerance; see above). Two hours after this test, naloxone (10 mg/kg, i.p.) was administrated to all mice to precipitate opioid withdrawal. Mouse activity was digitally recorded and evaluated later for an established record of withdrawal behaviors for 15 min [39]. Immediately upon injection of naloxone, all mice were scored for number of jumps, forepaw tremor, wet dog shakes, straightening, rearing, forepaw licking, teeth chattering, and the presence (as +/−) and number of soft stools.

[6] = test system: mice; test: Naloxone-precipitated opioid withdrawal (physical dependence); type: in vivo, mouse; details: for Forepaw Tremor: CycloAnt 3 mg/kg (n = 9) or morphine 10 mg/kg (n = 10) i.p. twice daily 4 days + day 5, naloxone 10 mg/kg i.p. 120 min later, scored 15 min, average; for Forepaw Licking Frequency / Jumping Frequency / Number of soft stools / Presence of diarrhea / Rearing Frequency / Straightening / Teeth Chattering Frequency / Wet Dog Shakes: as E25
Description: as §3

[7] = target: T1, MOR (Homo sapiens, UniProt P35372); test: SAFETYscan cAMP assay, agonist mode, cells overexpressing MOR; type: cell-based; details: cells overexpressing receptor, read-out: MOR agonism EC50
T1 sequence (P35372 whole entry): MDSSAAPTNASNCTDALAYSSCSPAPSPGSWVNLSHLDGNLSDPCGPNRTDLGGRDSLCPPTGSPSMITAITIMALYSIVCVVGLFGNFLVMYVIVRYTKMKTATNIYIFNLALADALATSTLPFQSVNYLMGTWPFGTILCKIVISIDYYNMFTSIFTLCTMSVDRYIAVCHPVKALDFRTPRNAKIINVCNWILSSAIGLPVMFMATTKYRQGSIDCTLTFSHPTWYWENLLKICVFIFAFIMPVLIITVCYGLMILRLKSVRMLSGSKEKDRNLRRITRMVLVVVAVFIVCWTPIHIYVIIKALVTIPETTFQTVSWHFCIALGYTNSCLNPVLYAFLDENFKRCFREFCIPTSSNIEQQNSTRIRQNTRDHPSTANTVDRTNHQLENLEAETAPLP
Description: (§4) The potential interaction of CycloAnt with a panel of 47 protein targets, including GPCRs, kinases, nuclear hormone receptors, ion channels, and enzymes, was assessed by assays included in the SAFETYscan service from Eurofins DiscoverX. CycloAnt was tested in both agonist and antagonist modes for each representative GPCRs (see Supplemental Material S9–S11).
(§5) CycloAnt interactions with a broad set of molecular targets were determined with the Safety47 Panel Dose Response, using the SAFETYscan provided by Eurofins DiscoverX. This panel utilizes 78 assays at 47 protein targets, including GPCRs, kinases, nuclear hormone receptors, ion channels, and enzymes. […] CycloAnt only interacted with MOR and DOR in the panel, showing agonist activity at both receptors using the cAMP assay. […] This discrepancy on the function at DOR may be accounted for receptor reserve, as a very weak partial agonist/antagonist can appear as a full agonist when receptor reserve is present. […] Regardless, consistent with the SAFETYscan results, CycloAnt was not found to produce any significant biological activity at any other targets in this study than DOR and MOR.

[8] = target: DOR (Homo sapiens, UniProt P41143); test: SAFETYscan cAMP assay, agonist mode, cells overexpressing DOR; type: cell-based; details: cells overexpressing receptor, read-out: DOR agonism EC50
DOR, sequence (P41143 whole entry): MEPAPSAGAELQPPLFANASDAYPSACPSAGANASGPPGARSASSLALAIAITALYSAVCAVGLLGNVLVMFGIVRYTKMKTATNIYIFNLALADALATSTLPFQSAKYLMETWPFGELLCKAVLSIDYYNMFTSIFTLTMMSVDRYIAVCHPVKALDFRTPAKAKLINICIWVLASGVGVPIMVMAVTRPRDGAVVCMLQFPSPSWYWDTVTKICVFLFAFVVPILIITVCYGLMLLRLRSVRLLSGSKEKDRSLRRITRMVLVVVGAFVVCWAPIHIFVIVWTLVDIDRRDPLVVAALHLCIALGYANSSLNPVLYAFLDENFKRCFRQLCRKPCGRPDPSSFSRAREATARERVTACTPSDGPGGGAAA
Description: as §4, §5

[9] = test system: panel of 47 protein targets, including GPCRs, kinases, nuclear hormone receptors, ion channels, and enzymes; test: Eurofins DiscoverX SAFETYscan Safety47 panel, agonist and antagonist modes; details: 78 assays at 47 targets, other than MOR and DOR
Description: as §4, §5

[10] = target: T1, MOR; details: receptor-binding assay; cited from earlier work
Excerpt: However, that cyclic peptide has a sequence of Tyr-[D-Lys-Dap(Ant)-Tyr-Gly], differing from the sequence Tyr-[D-Lys-Dap(Ant)-Thr-Gly] identified in this study. The di ...

| Compound | Time of peak antinociception after administration ([1]; i.p., 55 °C WWTW) [min] | Effect on breathing rate compared to vehicle [2] | Effect on ambulation (hyperlocomotion) [3] | Day 5 tail withdrawal latency, 48 °C warm water stimulus [4] [s] | Opioid-induced hyperalgesia after chronic administration [4] | Antinociceptive tolerance on day 5 [5] | Forepaw Tremor [6] | Forepaw Licking Frequency [6] | Jumping Frequency [6] | Number of soft stools [6] | Presence of diarrhea [6] | Rearing Frequency [6] | Straightening [6] | Teeth Chattering Frequency [6] | Wet Dog Shakes [6] | also measured |
| --- | --- | --- | --- | --- | --- | --- | --- | --- | --- | --- | --- | --- | --- | --- | --- | --- |
| Leu-[D-Lys-Dap(Ant)-Thr-Gly] (lariat or depsi) [CycloAnt-Leu, side-to-tail cyclic pentapeptide analog] | ≤ 20 |  |  |  |  |  |  |  |  |  |  |  |  |  |  | Duration of significant antinociception compared to vehicle ([1]; CycloAnt 3 mg/kg i.p., CycloAnt-Leu 100 mg/kg i.p., p < 0.05 Dunnett): 50 min; Fold less potent than morphine (ED50) ([1]; i.p., 55 °C WWTW): 9.3 fold; Antinociceptive ED50 (and 95% confidence interval) ([1]; i.p., male C57BL/6J mice, 55 °C WWTW, at peak effect (morphine 30 min)): 38.3 (18.7–127.1) mg/kg |
| CN1CC[C@]23c4c5ccc(O)c4O[C@H]2[C@@H](O)C=C[C@H]3[C@H]1C5 [morphine, reference compound] | 30 | produced significant dose and time-dependent respiratory depression | significantly increased ambulation | 4.35 ± 0.47 | induced significant hyperalgesia | significant reductions in the tail-withdrawal latency | 66 * | 1.7 * | 41.6 * | 5.4 * | yes | 22.2 * | 1.1 | 9.5 * | 1.3 | ED50 ([1]; Mus musculus, ip, 0.5 h, i.p., male C57BL/6J mice, 55 °C WWTW, at peak effect (morphine 30 min), read-out: Antinociceptive ED50 (and 95% confidence interval)): 4.12 mg/kg |
| C[C@@H](O)[C@@H]1NC(=O)[C@H](CNC(=O)c2ccccc2N)NC(=O)[C@H](NC(=O)[C@@H](N)Cc2ccc(O)cc2)CCCCNC(=O)CNC1=O [CycloAnt, Tyr-[D-Lys-Dap(Ant)-Thr-Gly]] (H-Y[dK][Dap](2Abz)TG; lactam 2-C) |  | did not significantly impair breathing | induced significant hyperlocomotor activity | 9.02 ± 0.83 | did not induce significant OIH | significant reductions in the tail-withdrawal latency | 23.7 † | 11.2 † | 1.89 † | 6.67 * | yes | 17.8 * | 1.22 | 0 † | 2.22 | EC50 [7]: 14 nM; EC50 [8]: 3.36 nM; Agonist or antagonist activity at other panel targets [9]: did not produce agonist or antagonist activity at any other target tested in this panel; Ambulation compared with morphine ([3]; after 20 min to end of testing period, p < 0.05 Tukey): significantly less than those induced by morphine |
| Tyr-[D-Lys-Dap(Ant)-Tyr-Gly] |  |  |  |  |  |  |  |  |  |  |  |  |  |  |  | Binding affinity for the MOR [10]: 14 nM |
